From BindingDB's records for doi:10.1021/np100918z (National Cancer Institute-Frederick, 2011)

These compounds were tested against T1, Programmed cell death protein 4 (Homo sapiens, UniProt Q53EL6) (assay: Inhibition of TPA-induced degradation of Pdcd4 (amino acid 39-91) expressed in human HEK293 cells assessed as minimum compound concentration required for 50% recovery of Pdcd4-luciferase signal incubated for 8 hrs by luciferase reporter gene assay).
T1 sequence (Q53EL6 whole entry): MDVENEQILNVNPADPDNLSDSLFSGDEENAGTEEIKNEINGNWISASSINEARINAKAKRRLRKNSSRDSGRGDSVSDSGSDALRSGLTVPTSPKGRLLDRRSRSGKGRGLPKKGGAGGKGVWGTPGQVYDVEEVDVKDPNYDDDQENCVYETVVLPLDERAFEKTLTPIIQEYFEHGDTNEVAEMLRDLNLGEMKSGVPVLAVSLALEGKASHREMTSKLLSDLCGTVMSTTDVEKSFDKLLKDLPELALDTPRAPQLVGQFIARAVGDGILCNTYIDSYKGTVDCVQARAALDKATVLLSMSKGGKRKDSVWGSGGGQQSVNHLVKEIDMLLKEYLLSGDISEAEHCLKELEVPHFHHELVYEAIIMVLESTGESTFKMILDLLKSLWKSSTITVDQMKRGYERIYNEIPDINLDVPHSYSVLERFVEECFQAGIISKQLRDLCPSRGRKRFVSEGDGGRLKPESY

Compared with CCCCCCCCCCCCCCC[C@@H](O)C[C@H](O)C[C@H](O)C[C@H](O)C[C@H](O)C[C@H]1CC=CC(=O)O1 [Cryptocaryol A], CCCCCCCCCCCCCCC[C@H](C[C@H](O)C[C@H](O)C[C@H](O)C[C@H](O)C[C@H]1CC=CC(=O)O1)OC(C)=O [Cryptocaryol B] is 1.6-fold lower in EC50: 4900 nM for the first, 3000 nM for the second. The second is the more potent here.

CCCCCCCCCCCCCCC[C@@H](O)C[C@H](O)C[C@H](O)C[C@H](O)C[C@H](O)C[C@@H]1OC(=O)C=C[C@@H]1O [Cryptocaryol C] and CCCCCCCCCCCCCCC[C@@H](O)C[C@H](O)C[C@H](O)C[C@H](O)C[C@@H]1OC(=O)C=C[C@@H]1O [Cryptocaryol E] are within 1.5-fold of each other in EC50: 1600 nM for the first, 1800 nM for the second.

Compared with CCCCCCCCCCCCCCC[C@H](C[C@H](O)C[C@H](O)C[C@H](O)C[C@H](O)C[C@@H]1OC(=O)C=C[C@@H]1O)OC(C)=O [Cryptocaryol D], CO[C@H]1C[C@@H]2CC[C@@H](C)[C@@](O)(O2)C(=O)C(=O)N2CCCC[C@H]2C(=O)O[C@H]([C@H](C)C[C@@H]2CC[C@@H](O)[C@H](OC)C2)CC(=O)[C@H](C)/C=C(\C)[C@@H](O)[C@@H](OC)C(=O)[C@H](C)C[C@H](C)/C=C/C=C/C=C/1C [Rapamycin C-7, analog 4] is 30-fold lower in EC50: 1500 nM for the first, 50 nM for the second. The second is the more potent here.
